How the values were obtained:
beta amyloid 1-42 = biological target: T1, beta amyloid 1-42 (Homo sapiens, UniProt P05067); experiment: Inhibition test of beta amyloid aggregation (Thioflavin T fluorescence); format: biochemical; conditions: FIG. 1
T1 construct: Synthetic beta amyloid 1-42 (BACHEM); purchased BACHEM; host or cells: synthetic peptide
Protocol: Synthetic beta amyloid 1-42 (BACHEM) was dissolved in DMSO in order to 250 μm solution and diluted with PBS into 1/10 on fluorescent black plate to induce aggregation. By comparing with inhibition activity of the tanshinone compounds prepared in Example 1 on beta amyloid aggregation, the test sample showing more than 50% inhibition activity at 10 μg/ml was chosen to use and added to react for 1 hour at room temperature. ThT (Thioflavin T) was diluted with 50 mM glycine buffer solution and the diluted solution was added to each well by 150 μl/well. The absorbance was determined by microplate reader (SAFIRE, TECAN) at 450 nm excitation wavelength/480 nm emission wavelength and the inhibition activity of the test sample on beta amyloid aggregation was transformed into IC50.

[1] = system: HT22 mouse neuronal cell line treated with aggregated beta amyloid 25-35; experiment: Inhibition test of beta amyloid toxicity (MTT); format: cell-based; conditions: HT22 cells, 25 μm aggregated beta amyloid 25-35, 18 hours
Protocol: To determine the inhibitory activity of the compounds prepared in Examples on beta-amyloid toxicity, following test was performed according to the procedure disclosed in the literature (Gillardon, F. et al., Brain Research, 706(1), pp. 169-172, 1996).
HT22 mouse neuronal cell line was incubated in DMEM (Dulbecco's Modified Eagle's Medium, Gibco-BRL) medium supplemented with 10% FBS (Fetal Bovine Serum, Hyclone) and 1% penicillin/streptomycin (Sigma Co.). Prior to test, HT22 cell was incubated on 96 well plates with a density of 5×10^3 cell/well and further incubated in serum free DMEM medium for 1 hour before the treatment of test sample. Various concentration of compounds prepared in Examples used as a test sample was added thereto and incubated for 1 hour. Aggregated beta amyloid 25-35 (US peptide) was treated thereto to the concentration of 25 μm and incubated for 18 hours to induce cell necrosis. 5 mg/ml of MTT (3-(4,5-dimethyl-2-thiazolyl)-2,5-diphenyl-2H-tetrazolium bromide) solution was added each well with 15 μl/well and the well was incubated for 4 hours. Dissolving buffer solution (10% SDS, 50% dimethyl formamide, pH 4.7) was added to each well with 100 μl/well and reacted for overnight. 18 hours after the reaction, the absorbance of solution was determined by microplate reader (SAFIRE, TECAN) at 570 nm/630 nm wavelength (Gillardon, F. et al., Brain Research, 706(1) pp 169-172, 1996).

[2] = system: ICR mouse administrated aggregated beta amyloid 1-42; experiment: AD acute model experiment - passive avoidance test; format: in vivo
Protocol: For passive avoidance test, male ICR mouse weighing 25 g purchased from Samtaco Co. was bred with five mice per cage and the cage was kept with following condition maintaining the temperature of 22±2° C. and the relative humidity of […] under the regularly controlled light/dark condition with an interval of 12 hours.
Synthetic beta amyloid 1-42 (BACHEM) was dissolved in DMSO in order to be 250 μm solution and diluted with PBS to […] and aggregated at 37° C. for four days (Passive Avoidance test) or six days (Y maze test).
Aggregated beta amyloid 1-42 was administrated into the mice according to the procedure disclosed in the literature (Lausen & Belknap, J. Pharmacol. Methods, 16 pp 355-357, 1986).
[…] beta amyloid 1-42 was administrated into the 2.4 mm depth of bregma region with 50 μl of Hamilton micro-syringe equipped with 26-gauge needle. The behavior tests were divided into Y maze test and PA (passive avoidance) test after the beta amyloid administration. […]
During the first acquisition trial, each mouse was placed in the lighted compartment; as soon as they entered the dark compartment, the door was closed, and they received an electric shock through the grid floor (0.6 Ma, 3 s). […] 24 hours after the training trial, the mice were again placed in the lighted compartment and the time until they re-entered the dark compartment was measured (step-through latency). […]

T1 sequence (P05067 672-713): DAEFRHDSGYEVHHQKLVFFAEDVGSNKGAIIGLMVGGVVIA

COCCCc1ccc2oc(-c3ccc(OC)c(OC)c3)cc2c1 [Compound 18b, 2-(3,4-dimethoxy-phenyl)-5-(3-methoxy-propyl)-benzofuran]
inhibitory effect on the aggregation of beta amyloid (beta amyloid 1-42): most potent inhibitory effect
inhibition effect on beta-amyloid toxicity [1]: potent inhibition effect
recovering effect on memory learning damaged by beta-amyloid (passive avoidance, step-through latency) ([2]; mice, oral, three days, FIG. 4): potent recovering effect
effect on the memory learning capacity (passive avoidance), best dose group ([2]; treatment group with more than 100 mg/kg, FIG. 5): most excellent effect

Reference: patent US8263649B2, “Benzofuran type derivatives, a composition comprising the same for treating or preventing cognitive dysfunction and the use thereof” (Medifron DBT Co., Ltd., priority 2006, dated 2012)
